# Assay results: patent publication EP4818177A1, “TRICYCLIC DERIVATIVE INHIBITOR, AND PREPARATION METHOD AND USE THEREFOR” (Shanghai Hansoh Biomedical Co., Ltd., priority 2023, dated 2025)
# Tests used:
# [1] = system: MTAP Knockout HCT116 cells; test: Cell proliferation inhibition (CellTiter-Glo), MTAP knockout cells; format: cell-based; conditions: for Selectivity: HCT116 versus MTAP Knockout HCT116; for IC50: Homo sapiens, HCT-116, MTAP Knockout HCT116 cells, 72-240 hours incubation, CellTiter-Glo
# Description: (§1) Test Example 2: Determination of the inhibitory effect of the compounds of the present invention on the proliferation activity of HCT116 and MTAP Knockout HCT116 cells.
# (§2) 1. Experimental objective: to determine the inhibitory effect of the compound on the proliferation activity of HCT116 wild-type and HCT116 MTAP knockout cells. 2. Experimental instruments: Centrifuge (Eppendorf 5810R); microplate reader (BioTek Synergy H1 or PerkinElmer Envision); pipette (Eppendorf or Rainin). 3. Experimental reagents: HCT116 and MTAP Knockout HCT116 cells were purchased from Nanjing Cobioer; Cell Titer-Glo was purchased from Promega (Cat. No. G7573); McCoy' 5A was purchased from Gibco (Cat. No. 12330031); FBS was purchased from Gibco (Cat. No. 10091148); PBS was purchased from Gibco (Cat. No. 10010023); trypsin was purchased from Gibco (Cat. No. 25200056); cell culture plates were purchased from Corning (Cat. No. 3610). 4. Experimental methods: HCT116 and MTAP Knockout HCT116 cells were cultured in McCoy'5A medium containing 10% FBS until an appropriate cell density was reached. The cells were then collected and adjusted to a suitable concentration using complete medium. The cell suspension was seeded into a 96-well plate at 90 µL per well and allowed to adhere overnight in a 37°C, 5% CO2 incubator. Compound solutions of various concentrations were prepared using DMSO and culture medium, with a vehicle control set. The compound solutions were added to the 96-well plate at 10 µL per well, and the plate was incubated in a 37°C, 5% CO2 incubator for an additional 72-240 hours. After incubation, CellTiter-Glo solution was added, and the mixture was mixed uniformly by shaking, followed by incubation in the dark for 10 to 30 minutes. Luminescence was measured using a Synergy H1 or Envision microplate reader. 5. Experimental data processing method: The inhibition rate was calculated using the luminescence signal values, and the concentrations along with the inhibition rates were subjected to non-linear regression curve fitting using Graphpad Prism software to obtain the IC50 values.
# [2] = biological target: T1, PRMT5/MEP50-MTA protein complex (Homo sapiens, UniProt O14744); test: Thermal shift assay: change in melting temperature of the PRMT5/MEP50-MTA protein complex; format: binding; conditions: compound 8 µM, PRMT5/MEP50 2 µM, MTA 2 µM; Tm minus DMSO vehicle control
# T1 construct: purchased Viva Biotech
# T1 sequence (O14744 whole entry): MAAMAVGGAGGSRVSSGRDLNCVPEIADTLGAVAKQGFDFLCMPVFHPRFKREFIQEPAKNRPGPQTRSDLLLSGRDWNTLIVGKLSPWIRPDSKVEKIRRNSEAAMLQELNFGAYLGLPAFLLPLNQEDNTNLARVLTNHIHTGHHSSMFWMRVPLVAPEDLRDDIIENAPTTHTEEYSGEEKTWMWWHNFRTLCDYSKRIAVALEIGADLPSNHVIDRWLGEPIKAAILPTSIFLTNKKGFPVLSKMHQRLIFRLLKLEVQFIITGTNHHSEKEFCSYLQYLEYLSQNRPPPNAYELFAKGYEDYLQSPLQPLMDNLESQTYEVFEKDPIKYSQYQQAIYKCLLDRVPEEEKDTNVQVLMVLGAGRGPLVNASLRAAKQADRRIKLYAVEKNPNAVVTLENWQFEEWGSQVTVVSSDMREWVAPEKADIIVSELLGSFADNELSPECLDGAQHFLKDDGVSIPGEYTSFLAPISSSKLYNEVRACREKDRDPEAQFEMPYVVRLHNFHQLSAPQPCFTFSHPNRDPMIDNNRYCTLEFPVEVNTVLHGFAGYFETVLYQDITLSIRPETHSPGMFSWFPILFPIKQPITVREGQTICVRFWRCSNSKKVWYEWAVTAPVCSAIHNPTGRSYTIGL
# T1 sequence (Q9BQA1 whole entry partner): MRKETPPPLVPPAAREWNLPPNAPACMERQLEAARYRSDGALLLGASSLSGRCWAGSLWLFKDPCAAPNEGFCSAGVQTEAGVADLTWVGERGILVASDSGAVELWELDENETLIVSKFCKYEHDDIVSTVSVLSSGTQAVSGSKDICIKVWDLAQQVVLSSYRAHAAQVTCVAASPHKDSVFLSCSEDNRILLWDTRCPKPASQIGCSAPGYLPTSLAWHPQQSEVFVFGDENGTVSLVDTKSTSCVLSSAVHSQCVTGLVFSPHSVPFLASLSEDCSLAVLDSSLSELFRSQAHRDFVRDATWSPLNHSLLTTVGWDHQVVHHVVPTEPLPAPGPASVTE
# Description: Test Example 1: Determination of the ability of the compounds of the present invention to improve the thermal stability (melting temperature) of the PRMT5/MEP50-MTA protein complex.
# 1. Experimental objective: The objective of this test example is to determine the ability of the compound to improve the thermal stability of the PRMT5/MEP50-MTA protein complex, resulting in an increase in the protein melting temperature. 2. Experimental instruments: Quantitative PCR instrument (Quantstudio6 Flex) was purchased from Life Technologies; pipettes were purchased from Eppendorf or Rainin. 3. Experimental reagents and consumables: PRMT5/MEP50 protein was prepared by Viva Biotech; HEPES was purchased from Thermo Fisher Scientific (Cat. No. 15630080); DTT was purchased from Sigma (Cat. No. 43816-10ml); sodium chloride was purchased from Invitrogen (Cat. No. AM9760G); Protein Thermal Shift™ Dye Kit was purchased from Thermo Fisher Scientific (Cat. No. 4461146); methylthioadenosine (MTA) was purchased from Sigma (Cat. No. D5011). 4. Experimental methods: In this experiment, the thermal shift method was used to measure the change in the melting temperature (Tm) of the PRMT5/MEP50-MTA protein complex before and after compound binding, thereby characterising the ability of the compound to improve the thermal stability of the PRMT5/MEP50-MTA protein complex. A solution containing 50 mM HEPES, 10 mM DTT, 2 µM MTA, SYPRO Orange and 250 mM NaCl was prepared as the experimental buffer. Human PRMT5/MEP50 protein was added to a final concentration of 2 µM, and the mixture was incubated at room temperature for 30 minutes. The above reaction mixture was aliquoted into 8-strip PCR tubes at 19.5 µL per tube. Then 0.5 µL of test compound or DMSO was added to each tube, providing a total reaction volume of 20 µL and a final compound concentration of 8 µM. 2.5% DMSO was set as the vehicle control. After incubation at room temperature for 10 minutes, the PCR tubes were placed in a PCR instrument, and the melt curve function was selected to measure the melting temperature of the PRMT5/MEP50-MTA protein complex in different treatment groups (heated from 25°C to 95°C, 0.03°C/s). 5. Experimental data processing method: The experimental data files from the PCR instrument were imported into the thermal shift software to obtain the melting temperature (Tm) for each treatment group.
# HCT116 wild-type cells = test: Cell proliferation inhibition (CellTiter-Glo), wild-type cells; format: cell-based; conditions: Homo sapiens, HCT-116, HCT116 wild-type cells, 72-240 hours incubation
# Description: as §1, §2
# [3] = Pharmacokinetics in rats (plasma) after oral administration; conditions: male, SD, rat, 5 mg/kg
# Description: Test Example 4: Determination of the pharmacokinetics of the compounds of the present invention in rats (plasma) after oral administration.
# Study objective: SD rats were used as test animals to study the pharmacokinetic behaviour of the following example compounds in rats (plasma) after oral administration at a dose of 5 mg/kg. […] Test scheme 2.1 Test drugs: Vehicle formula: 0.5% CMC-Na (1% Tween 80); the examples of the present invention, prepared in house. 2.2 Test animals: 3 SD rats per group, male, purchased from Shanghai Bikai Keyi Biotechnology Co., Ltd., with animal license number (SCXK (Shanghai) 2018-0006, No.20180006037467). 2.3 Administration: 3 SD rats per group, male, were fasted overnight and then respectively administered PO at a dose of 5 mg/kg and a volume of 10 mL/kg. 2.4 Sample collection: 0.2 mL of blood was collected from the jugular vein of rats before administration and at 0, 0.25, 0.5, 1, 2, 4, 6, 8 and 24 h after administration, and placed in EDTA-K2test tubes, and the test tubes were centrifuged at 6,000 rpm at 4°C for 6 min to separate the plasma, which was stored at -80°C. The animals were fed 4 h after administration. 2.5 Sample treatment • 1) 160 uL of acetonitrile was added to 40 uL of plasma sample for precipitation, and after mixing, the mixture was centrifuged at 3,500 × g for 5-20 minutes. • 2) 100 uL of the treated supernatant solution was taken for LC/MS/MS analysis to determine the concentration of the test compounds. 2.6 Liquid phase analysis • Liquid phase conditions: Shimadzu LC-20AD pump; • Mass spectrometry conditions: AB Sciex API 4000 mass spectrometer; • Chromatographic column: phenomenex Gemiu 5 um C18 50 × 4.6 mm; • Mobile phase: solution A: 0.1% formic acid in water, solution B: methanol; • flow rate: 1.0 mL/min; Elution time: 0-4.0 min, with eluents as follows:
# Experimental results and analysis: The main pharmacokinetic parameters were calculated using WinNonlin 8.2.
smiles,measurement,setting,value
"CNN(C(=O)c1ccc2nc(N)c3cnn(C)c3c2c1)C1COCc2nc(C(F)(F)F)ccc21 (racemic) [Example 301, 4-Amino-N',1-dimethyl-N-[2-(trifluoromethyl)-6,8-dihydro-5H-pyrano[3,4-b]pyridin-5-yl]pyrazolo[4,3-c]quinoline-8-hydrazide]",Selectivity,[1],94
same,IC50,[1],0.014 µM
same,ΔTm at 8 µM,[2],11.6 °C
same,IC50,HCT116 wild-type cells,1.36 µM
"CN(C(=O)c1ccc2nc(N)c3cnn(C)c3c2c1)C1COCc2c1ccn1cc(Br)nc21 (stereo not shown) [Example 37, 4-Amino-N-(2-bromo-7,10-dihydro-8H-imidazo[1,2-a]pyrano[3,4-c]pyridin-7-yl)-N,1-dimethyl-1H-pyrazolo [4,3-c] quinoline-8-carboxamide]",Selectivity,[1],166
same,IC50,[1],0.0092 µM
same,ΔTm at 8 µM,[2],11.3 °C
same,IC50,HCT116 wild-type cells,1.52 µM
"Cc1cc2nc(N)c3cncn3c2cc1C(=O)N(C)[C@@H]1COCc2c1ccn1cc(C(F)(F)F)nc21 [Example 39-P1, (S)-4-amino-N,7-dimethyl-N-(2-(trifluoromethyl)-7,10-dihydro-8H-imidazo[1,2-a]pyrano[3,4-c]pyridin-7-yl)imidazo[1,5-a]quinoxaline-8-carboxamide]",Selectivity,[1],108
same,IC50,[1],0.013 µM
same,ΔTm at 8 µM,[2],12.4 °C
same,IC50,HCT116 wild-type cells,1.39 µM
"Cc1cc2nc(N)c3cncn3c2cc1C(=O)N(C)C1COCc2c1ccn1c(C(F)(F)F)cnc21 (stereo not shown) [Example 62, 4-Amino-N,7-dimethyl-N-(3-(trifluoromethyl)-7,10-dihydro-8H-imidazo[1,2-a]pyrano[3,4-c]pyridin-7-yl)imidazo[1,5-a]quinoxaline-8-carboxamide]",Selectivity,[1],113
same,IC50,[1],0.0072 µM
same,ΔTm at 8 µM,[2],12.5 °C
same,IC50,HCT116 wild-type cells,0.808 µM
"Cc1cc2nc(N)c3cncn3c2cc1C(=O)N(C)[C@@H]1COCc2c1ccn1c(C(F)(F)F)cnc21 [Example 62-P1, (S)-4-amino-N,7-dimethyl-N-(3-(trifluoromethyl)-7,10-dihydro-8H-imidazo[1,2-a]pyrano[3,4-c]pyridin-7-yl)imidazo[1,5-a]quinoxaline-8-carboxamide]",ΔTm at 8 µM,[2],12.5 °C
same,AUC(0-inf),[3],1360 ng·h/mL
same,Cmax,[3],441 ng/mL
same,MRT inf,[3],4 h
same,Tmax,[3],0.5 h
same,half-life,[3],4.1 h
"CN(C(=O)c1ccc2nc(N)c3cnn(C)c3c2c1)C1COCc2c1ccn1c(C(F)(F)F)cnc21 (stereo not shown) [Example 83, 4-Amino-N,1-dimethyl-N-(3-(trifluoromethyl)-7,10-dihydro-8H-imidazo[1,2-a]pyrano[3,4-c]pyridin-7-yl)-1H-pyrazolo[4,3-c]quinoline-8-carboxamide]",Selectivity,[1],164
same,IC50,[1],0.0048 µM
same,ΔTm at 8 µM,[2],11.8 °C
same,IC50,HCT116 wild-type cells,0.79 µM
"CNN(C(=O)c1cc2c(cc1F)nc(N)c1cncn12)C1COCc2nc(C(F)(F)F)ccc21 (stereo not shown) [Example 279, 4-Amino-7-fluoro-N'-methyl-N-[2-(trifluoromethyl)-6,8-dihydro-5H-pyrano[3,4-b]pyridin-5-yl]imidazo[1,5-a]quinoxaline-8-hydrazide]",ΔTm at 8 µM,[2],12.2 °C
same,AUC(0-inf),[3],729 ng·h/mL
same,Cmax,[3],233 ng/mL
same,MRT inf,[3],2.1 h
same,Tmax,[3],0.5 h
same,half-life,[3],1 h
"[2H]C([2H])([2H])NN(C(=O)c1cc2c3c(c(N)nc2cc1F)COC3)C1COCc2c1ccn1c(C(F)(F)F)cnc21 (stereo not shown) [Example 351, 4-Amino-7-fluoro-N'-(trideuteriomethyl)-N-(3-trifluoromethyl-7,10-dihydro-8H-imidazo [1,2-a]pyrano [3,4-c]pyridin-7-yl)-1,3-dihydrofuro [3,4-c] quinoline-8-carbohydrazide]",ΔTm at 8 µM,[2],12.6 °C
same,AUC(0-inf),[3],9660 ng·h/mL
same,Cmax,[3],2330 ng/mL
same,MRT inf,[3],3.3 h
same,Tmax,[3],0.5 h
same,half-life,[3],2.3 h
"CNN(C(=O)c1cc2c3c(c(N)nc2cn1)COC3)C1COc2cc(S(F)(F)(F)(F)F)ccc21 [Example 372, rel-(R)-4-amino-N'-methyl-N-(6-(pentafluoro-6-sulphanyl)-2,3-dihydrobenzofuran-3-yl)-1,3-dihydrofuro[3,4-c][1,7]naphthyridine-8-carbohydrazide]",ΔTm at 8 µM,[2],11.2 °C
"CNN(C(=O)c1cc2c(cn1)nc(N)c1cnn(C)c12)C1COc2cc(S(F)(F)(F)(F)F)ccc21 (stereo not shown) [Example 375, 4-Amino-N',1-dimethyl-N-(6-(pentafluoro-6-sulphanyl)-2,3-dihydrobenzofuran-3-yl)-1H-pyrazolo[4,3-c][1,7]naphthyridine-8-carbohydrazide]",ΔTm at 8 µM,[2],12.7 °C
"CNN(C(=O)c1cc2c(cn1)nc(N)c1cncn12)C1COCc2nc(S(F)(F)(F)(F)F)ccc21 (stereo not shown) [Example 387, 4-Amino-N'-methyl-N-(2-pentafluorosulphanyl-5,8-dihydro-6H-pyrano[3,4-b]pyridin-5-yl)imidazo[1,5-a]pyridone[3,4-e]pyrazoline-8-hydrazide]",ΔTm at 8 µM,[2],12.6 °C
"[2H]C([2H])([2H])NN(C(=O)c1ccc2nc(N)c3c(c2c1)COC3)C1COCc2c1ccn1c(C(F)(F)F)cnc21 (stereo not shown) [Example 392, 4-Amino-N'-(trideuteriomethyl)-N-(3-trifluoromethyl-7,10-dihydro-8H-imidazo [1,2-a]pyrano [3,4-c]pyridin-7-yl)-1,3-dihydrofuro [3,4-c] quinoline-8-carbohydrazide]",ΔTm at 8 µM,[2],10.4 °C
"[2H]C([2H])([2H])NN(C(=O)c1cc2c3c(c(N)nc2cc1Cl)COC3)C1COCc2c1ccn1c(C(F)(F)F)cnc21 (stereo not shown) [Example 394, 4-Amino-7-chloro-N'-(methyl-d3)-N-(3-(trifluoromethyl)-7,10-dihydro-8H-imidazo [1,2-a]pyrano [3,4-c]pyridin-7-yl)-1,3-dihydrofuro [3,4-c] quinoline-8-carbohydrazide]",ΔTm at 8 µM,[2],13.2 °C
"[2H]C([2H])([2H])NN(C(=O)c1cc2c(cc1Cl)nc(N)c1cnn(C)c12)C1COCc2c1ccn1c(C(F)(F)F)cnc21 (stereo not shown) [Example 435, 4-Amino-7-chloro-1-methyl-N'-(methyl-d3)-N-(3-(trifluoromethyl)-7,10-dihydro-8H-imidazo[1,2-a]pyrano[3,4-c]pyridin-7-yl)-1H-pyrazolo[4,3-c] quinoline-8-carbohydrazide]",ΔTm at 8 µM,[2],13.7 °C
[2H]C([2H])([2H])NN(C(=O)c1ccc2nc(N)c3cnn(C)c3c2c1)[C@@H]1COCc2c1ccn1c(C(F)(F)F)cnc21 [Example 436-P1],ΔTm at 8 µM,[2],11.9 °C
"CNN(C(=O)c1cc2c3c(c(N)nc2cn1)N=NC3C)C1COCc2c1ccn1c(C(F)(F)F)cnc21 (stereo not shown) [Example 444, 4-Amino-N',1-dimethyl-N-(3-(trifluoromethyl)-7,10-dihydro-8H-imidazo[1,2-a]pyrano[3,4-c]pyridin-7-yl)-1H-pyrazolo[3,4-c][1,7]naphthyridine-8-carbohydrazide]",ΔTm at 8 µM,[2],12.7 °C
